The values below come from paper PMC11425824 (ACS Omega, 2024).

What is called pIC50 is the IC50 on a negative log10 scale, so that one unit is a factor of ten.

The target in one series is CDK1 (Homo sapiens, UniProt P06493). Put plainly: In vitro CDK1 kinase assay. The series is classed as biochemical.
For series [1] the following is noted: cited from earlier work.
A further series concerns primary hepatocytes. The conditions noted are these: cited from earlier work.
For series [2] the following is noted: cited from earlier work. The source holds these as a separate data set.

pIC50: −log10 of the molar value.

CDK1, sequence (P20248 whole entry): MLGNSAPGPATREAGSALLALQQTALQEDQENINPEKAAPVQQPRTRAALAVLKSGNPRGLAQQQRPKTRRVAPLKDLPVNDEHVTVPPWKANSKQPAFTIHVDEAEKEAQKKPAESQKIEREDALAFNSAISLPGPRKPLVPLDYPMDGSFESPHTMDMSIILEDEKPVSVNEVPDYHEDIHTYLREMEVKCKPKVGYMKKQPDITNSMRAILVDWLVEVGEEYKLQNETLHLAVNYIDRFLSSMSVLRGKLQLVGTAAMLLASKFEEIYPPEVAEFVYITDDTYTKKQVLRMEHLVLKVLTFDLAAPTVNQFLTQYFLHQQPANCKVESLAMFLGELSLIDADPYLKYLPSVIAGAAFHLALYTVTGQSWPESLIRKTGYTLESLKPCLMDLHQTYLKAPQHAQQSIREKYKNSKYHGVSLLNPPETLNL
CDK1, sequence (P06493 whole entry): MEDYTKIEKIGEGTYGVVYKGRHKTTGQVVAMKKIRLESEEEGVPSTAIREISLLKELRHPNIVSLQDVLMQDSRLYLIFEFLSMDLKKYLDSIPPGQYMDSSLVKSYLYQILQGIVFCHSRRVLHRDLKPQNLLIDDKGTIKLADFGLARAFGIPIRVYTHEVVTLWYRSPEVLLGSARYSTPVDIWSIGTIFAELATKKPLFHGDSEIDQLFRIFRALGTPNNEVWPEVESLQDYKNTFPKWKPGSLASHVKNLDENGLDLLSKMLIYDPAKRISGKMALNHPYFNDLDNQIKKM

At CDK1, `CC(C)OC(=O)[C@H](C)N[P@](=O)(CO[C@H](C)Cn1cnc2c(N)ncnc21)Oc1ccccc1` [DB_1, tenofovir alafenamide] showed a pIC50 of 5.55. Further, in series [1], the Cytotoxicity profile entry was “minimal cytotoxic effects” and the Mitochondrial toxicity entry is recorded as “low potential for mitochondrial toxicity”.

Consider `CCO[C@@H](Cc1ccc(OCCc2ccc(OS(C)(=O)=O)cc2)cc1)C(=O)O` [DB_6, tesaglitazar], for which, on CDK1, the pIC50 is 5.36. The “Toxicity to primary hepatocytes” value in the series on primary hepatocytes is listed as “no significant toxicity”.

Take `Cc1cc2cc(Oc3ccnc(Nc4cccc(CS(=O)(=O)NCCN(C)C)c4)n3)ccc2[nH]1` [DB_7, Surufatinib]: the pIC50 against CDK1 was 5.23.

In the case of `O=C1NC(=NCc2cccs2)S/C1=C\c1ccc2ncccc2c1` [RO-3306], at CDK1 (1 μM), the CDK1 activity result is listed as “around 20%”. This molecule also had a CDK1 inhibition on CDK1 (higher concentrations (10 and 100 μM)) of 100%. Besides, the “Clearance from the blood plasma” value in series [2] is on record as “rapid clearance”.
